Measured values taken from patent publication US20220047532A1, “AMPA RECEPTOR ANTAGONISTS SPECIFIC FOR CALCIUM PERMEABLE AMPA RECEPTORS AND METHODS OF TREATMENT THEREWITH” (priority 2018, published 2022).
Entries after “also recorded” stand apart in the source; their conditions may differ. Read-outs that look alike come from different tables or passages of the source.

Experiments:
[1] = tested on: MeCP2 S421 phosphorylation; experiment: KA-induced MeCP2 S421 phosphorylation, immunoblot, cortical E18+10DIV cultures; assay type: cell-based, rat; details: Ctx
Description: (§1) Nuclei were isolated as previously described (81). […] Blots were incubated with the following primary antibodies: MeCP2 (S421) (1:1000) and total-MeCP2 (1:1000, kind gifts from Dr. Michael Greenberg, Harvard Medical School), phospho-CaMKII (T286) (1:250, Cell Signaling), pan-CaMKII (1:250, Cell Signaling), ([…] (1:5000, Sigma), and lamin A/C (1:1000, Cell Signaling).

[2] = tested on: MeCP2 S421 phosphorylation; experiment: KCl-induced MeCP2 S421 phosphorylation, immunoblot, hippocampal cultures; assay type: cell-based, rat
Description: as §1

[3] = tested on: MeCP2 S421 phosphorylation; experiment: KCl-induced MeCP2 S421 phosphorylation, immunoblot, cortical cultures; assay type: cell-based, rat
Description: as §1

[4] = tested on: CaMKII T286 phosphorylation; assay type: cell-based
Description: as §1

[5] = tested on: MeCP2 S421 phosphorylation; experiment: KA-induced MeCP2 S421 phosphorylation, immunoblot, hippocampal E18+10DIV cultures; assay type: cell-based, rat; details: H
Description: as §1

[6] = tested on: E18+10DIV cultured hippocampal neurons; experiment: Fura-2 ratiometric Ca2+ imaging of KA-induced Ca2+ influx, hippocampal cultures; assay type: cell-based, rat; details: hippocampus
Description: (§2) Ratiometric Ca^2+ imaging was performed on E17/18+10 DIV hippocampal and cortical cultures, plated at 1×10^5 cells/well in 24 well plates. […] After 10 min bathed in 100 μM D-APV (Tocris), cells were stimulated using fast (<2 min) bath application of 30 μM kainate (KA). […] Changes in Ca^2+ influx were assessed by change in 340/380 nm excitation ratio from baseline in individual somas (using regions of interests) in NisElements software (see Supp. Methods).

[7] = tested on: E18+10DIV cultured cortical neurons; experiment: Fura-2 ratiometric Ca2+ imaging of KA-induced Ca2+ influx, cortical cultures; assay type: cell-based, rat; details: cortex
Description: as §2

[8] = tested on: GluA2-lacking AMPAR; experiment: AMPAR eEPSC currents in CDKL5 R59X mouse model; assay type: cell-based
[9] = tested on: PTZ-induced seizures; details: in vivo; cited from earlier work
[10] = tested on: CDKL5 R59X mouse; experiment: Behaviour of CDKL5 R59X mice after acute in vivo treatment
[11] = tested on: MeCP2 S421 phosphorylation; experiment: In vivo hypoxic seizure (HS)-induced MeCP2 S421 phosphorylation in P10 rats; parameters: species or system rat; details: for MeCP2 S421 phosphorylation 3 hrs post-HS: P10 rats, normalized to mean C+V control (100±8%), HS+V 157±11%, 20 mg/kg NBQX, 20 mg/kg IEM-1460, nimodipine 10 mg·kg, i.p.; for Baseline MeCP2 phosphorylation in control rats: control rats without HS
Description: as §1

[12] = tested on: CaMKII phosphorylation; experiment: In vivo hypoxic seizure-induced CaMKII phosphorylation; details: HS model
Description: as §1

[13] = tested on: primary auditory cortex (AI) silent synapses; experiment: PTZ-ELS auditory cortex critical period plasticity; assay type: in vivo; details: PTZ P9-11; 1 dose following seizure induction each day
[14] = tested on: hypoxic seizure (HS) model; details: post-seizure in vivo treatment; previously shown (6, 12); cited from earlier work
[15] = tested on: hippocampal CA1 AMPAR function, silent synapses, LTP; experiment: Hippocampal slice electrophysiology after P10 hypoxic seizures, post-seizure treatment; assay type: in vivo, rat
Description: FIG. 23 ELS induce altered hippocampal CA1 AMPAR function, silent synapses, and synaptic plasticity. Hippocampal brains slices removed at 48-72 h after P10 hypoxic seizures (HS) cause (A) enhanced AMPAR-mediated sEPSCs, (B) inwardly rectifying AMPAR eEPSCs, and (C) a precocious loss of silent synapses indicated by both decreased failure rates and silent synapse fraction. These changes yield attenuated synaptic plasticity both in early-life and as adults: (D) reduced eEPSC amplitude in post-HS 48-72 hrs from whole-cell LTP pairing protocol; (E,F) decreased potentiation from extracellular LTP recordings.

[16] = tested on: tdTom+ cells; experiment: tdTom+ cell labelling after PTZ seizures at P9-11 in FosTRAP mice; assay type: in vivo, mouse; details: NBQX 1 hr post PTZ stage 5 seizures; preliminary cohort n=3/group
Description: Seizures will be induced as described above. For the KA model, beginning 1 hour after KA seizure, mice will receive doses of either NBQX (20 mg/kg i.p.), […] IEM 1460 (10 mg/kg i.p.), or saline every 12 hrs×4 doses as per prior protocols with ELS. For the PTZ model, we will follow our prior protocol, and deliver the NBQX (20 mg/kg i.p.), IEM 1460 (10 mg/kg i.p.) or saline at 1 hr post seizure on P9, P10, and […] (FIG. 33). Mice will be euthanized at P15, P30, or P60. Two sets of groups will be prepared (n=12/group): the first for perfusion and subsequent IHC to determine whether treatment decreases the number of tdTom+ cells. Confocal imaging of at least 2 fields/section and 3 sections/mouse in defined areas of hippocampal CA subfields and dentate gyrus (hippocampus: Bregma −1.46 to −2.70 mm (interaural 2.34 mm-1.1 mm) or primary auditory cortex (Bregma −2.18 mm to −3.64 mm (interaural 1.5 mm to 0.16 mm) will be used. MAP2, Iba-1, GFAP, and GAD67 will be used to confirm cell identity. Cell counts will be performed using ImageJ software and group differences analyzed by 2-way ANOVA/Bonferroni correction. Multivariate linear and logistic regression will be used to evaluate effects of age, gender, treatment groups and seizure severity in ELS. […]

[17] = KA 100 μM, 100 μM D-APV alone, vs. KA, NaOH+DMSO treated controls
[18] = KA-induced, 5 μM KN93, KN92 5 μM, EGTA 1 mM
[19] = KA 100 μM, in the presence of APV, NBQX, NASPM 150 μM, nimodipine 5 μM
[20] = KA+APV plus NBQX 50 μM or NASPM 150 μM, vs. KA+APV condition (100±3%)

SMILES: N[C@H](CCCP(=O)(O)O)C(=O)O [D-APV]
- MeCP2 S421 phosphorylation [1, 17]: 76±13%
- KCl-mediated MeCP2 phosphorylation ([2]; hippocampal neurons, 10 DIV, D-APV alone): 73±21%
- KCl-mediated MeCP2 phosphorylation ([3]; cortical neurons, 10 DIV, D-APV alone): 87±21%
- KA-induced CaMKII phosphorylation ([4]; Ctx, pre-treatment with D-APV alone): 81±11%
- KA-induced CaMKII phosphorylation ([4]; H, pre-treatment with D-APV alone): 86±9%
- MeCP2 S421 phosphorylation [5, 17]: 89±13%
- KA-induced Ca2+ influx, normalized mean peak ratio ([6]; KA 30 μM, D-APV 100 μM, normalized to KA only (100±3%)): 73±3%
- KA-induced Ca2+ influx, normalized mean peak ratio ([7]; KA 30 μM, D-APV 100 μM, normalized to KA only (100±2%)): 74±3%

SMILES: CC(=O)OCOC(=O)CN(CCOCCOCCN(CC(=O)OCOC(C)=O)CC(=O)OCOC(C)=O)CC(=O)OCOC(C)=O [EGTA-AM]
- Phosphorylation of MeCP2 S421 ([1]; 100 μM EGTA-AM, p=0.0001): reduced
- Phosphorylation of MeCP2 S421 ([5]; 100 μM EGTA-AM, p=0.0057): reduced

SMILES: O=C(O)CN(CCOCCOCCN(CC(=O)O)CC(=O)O)CC(=O)O [EGTA]
- MeCP2 S421 phosphorylation [1, 18]: 72±7%
- MeCP2 S421 phosphorylation [5, 18]: 66±7%

SMILES: Br.C[N+](C)(C)CCCCCNCC12CC3CC(CC(C3)C1)C2.[Br-] [IEM-1460]
- Enhanced AMPAR currents [8]: decreased; also recorded: attenuated
- Effect in PTZ-induced seizures [9]: anti-seizure effects
- Activity-dependent MeCP2 phosphorylation in cultured neurons in vitro ([1]; p<0.0049, stimulus and concentration not stated): reduced
- Seizure behavior latency [10]: rescued
- Autistic like impairment in social behavior / social deficits ([10]; acute in vivo treatment): rescued; also recorded: improves
- Spatial and temporal working memory in Y maze (% spontaneous alternating behavior) ([10]; acute in vivo treatment): rescued; also recorded: improves
- MeCP2 S421 phosphorylation 3 hrs post-HS [11]: 106±11%
- Baseline MeCP2 phosphorylation in control rats [11]: did not affect
- Seizure-induced CaMKII phosphorylation in vivo [12]: prevented
- Activity-dependent MeCP2 phosphorylation in cultured neurons in vitro ([5]; p<0.0361, stimulus and concentration not stated): reduced

SMILES: COc1ccc(S(=O)(=O)Nc2ccccc2CN(C)C/C=C/c2ccc(Cl)cc2)cc1 [KN92]
- MeCP2 S421 phosphorylation [1, 18]: 99±3%
- MeCP2 S421 phosphorylation [5, 18]: 97±3%

SMILES: COc1ccc(S(=O)(=O)N(CCO)c2ccccc2CN(C)C/C=C/c2ccc(Cl)cc2)cc1 [KN93]
- MeCP2 S421 phosphorylation [1, 18]: 10±3%
- MeCP2 S421 phosphorylation [5, 18]: 3±1%

SMILES: NCCCNCCCCNCCCNC(=O)Cc1cccc2ccccc12 [NASPM, 1-Napthylacetyl Spermine]
- MeCP2 S421 phosphorylation [1, 19]: 12±2%
- KCl-mediated MeCP2 phosphorylation ([2]; H, in the presence of D-APV): 11±6%
- KCl-mediated MeCP2 phosphorylation ([3]; Ctx, in the presence of D-APV): 32±13%
- KA-induced CaMKII phosphorylation ([4]; Ctx, in the presence of D-APV): 25±5%
- KA-induced CaMKII phosphorylation ([4]; H, in the presence of D-APV): 28±7%
- MeCP2 S421 phosphorylation [5, 19]: 30±9%

SMILES: NS(=O)(=O)c1cccc2c1c([N+](=O)[O-])cc1nc(O)c(O)nc12 [NBQX]
- Subsequent A1 plasticity [13]: permits
- Synapse unsilencing [13]: prevents
- MeCP2 S421 phosphorylation [1, 19]: 0±0.3%
- Later-life seizures, altered synaptic plasticity, and autistic-like social deficits [14]: prevents
- Impaired LTP ([15]; 48-72 hr post HS and as P60 adults): protects
- Enhanced AMPAR function following ELS ([15]; post-seizure treatment): attenuates
- Premature silent synapse loss ([15]; post-seizure treatment): reverses
- KCl-mediated MeCP2 phosphorylation ([2]; H, in the presence of D-APV): 21±6%
- KCl-induced phosphorylation of MeCP2 S421 ([2]; hippocampus, NBQX alone, p=0.0003): reversed
- MeCP2 S421 phosphorylation 3 hrs post-HS [11]: 81±8%
- Baseline MeCP2 phosphorylation in control rats [11]: did not affect
- KCl-mediated MeCP2 phosphorylation ([3]; Ctx, in the presence of D-APV): 35±5%
- KCl-induced phosphorylation of MeCP2 S421 ([3]; cortex, NBQX alone, p=0.0069): reversed
- Seizure-induced CaMKII phosphorylation in vivo [12]: prevented
- KA-induced CaMKII phosphorylation ([4]; Ctx, in the presence of D-APV): 18±4%
- KA-induced CaMKII phosphorylation ([4]; H, in the presence of D-APV): 21±3%
- Number of tdTom+ cells [16]: decrease; also recorded: reduction
- MeCP2 S421 phosphorylation [5, 19]: 3±5%
- Remaining NMDAR-insensitive Ca2+ influx [6, 20]: 31±2%
- Remaining NMDAR-insensitive Ca2+ influx [7, 20]: 3±2%

SMILES: COCCOC(=O)C1=C(C)NC(C)=C(C(=O)OC(C)C)C1c1cccc([N+](=O)[O-])c1 (centres unmarked) [nimodipine]
- MeCP2 S421 phosphorylation [1, 19]: 4±1%
- KCl-mediated MeCP2 phosphorylation ([2]; H, in the presence of D-APV): 0±1%
- MeCP2 S421 phosphorylation 3 hrs post-HS [11]: 103±9%
- KCl-mediated MeCP2 phosphorylation ([3]; Ctx, in the presence of D-APV): 10±6%
- KA-induced CaMKII phosphorylation ([4]; Ctx, in the presence of D-APV): 23±9%
- KA-induced CaMKII phosphorylation ([4]; H, in the presence of D-APV): 33±6%
- MeCP2 S421 phosphorylation [5, 19]: 21±6%
